Data from US8796231B2, “Pest control composition” (Sumitomo Chemical Company, Limited, priority 2010, dated 2014).

Key:
Spodoptera litura = assay: Test Example 1: cabbage leaf immersion test, insecticidal rate on third-instar larvae; type: in vivo; settings: cabbage leaf immersed 60 seconds, after 4 days, 3 replicates
Experimental: (§1) A suspension concentrate containing 10.0% by weight of etoxazole [product name: Baroque (registered trademark) flowable, manufactured by Kyoyu Agri Co., Ltd.] was diluted with water containing 0.02% by volume of a spreading agent [product name: Sindain (registered trademark), manufactured by Sumitomo Chemical Co., Ltd.] so that the concentration of etoxazole became 25 ppm.
(§2) A suspension concentrate containing 11.7% by weight of spinetoram (weight ratio of spinetoram J:spinetoram L=75:25) was diluted with water containing 0.02% by volume of a spreading agent [product name: Sindain (registered trademark), manufactured by Sumitomo Chemical Co., Ltd.] so that the concentration of spinetoram became 7.31 ppm.
(§3) The water dilution of spinetoram was mixed with an equal amount of the water dilution of etoxazole to prepare a test solution.
The water dilution of etoxazole and the water dilution of spinetoram were respectively diluted with an equal amount of water containing 0.02% by volume of the same spreading agent as mentioned above to prepare a 12.5 ppm water dilution of etoxazole and a 3.66 ppm water dilution of spinetoram.
A cabbage was planted in a pot (volume: 860 ml) and grown until the fourth leaf stage. The leaves of the cabbage were cut off one by one. […]
An insect death rate was calculated according to the following equation. […]

Panonychus citri = assay: Test Example 2: Satsuma mandarin orange leaf piece immersion test, insecticidal rate on female imagoes; type: in vivo; settings: mandarin orange leaf piece immersed 60 seconds, after 6 days, 3 replicates
Experimental: as §1, with “1.56” for “25”
as §2, with “6.25” for “7.31”
as §3
The water dilution of etoxazole and the water dilution of spinetoram were respectively diluted with an equal amount of water containing 0.02% by volume of the same spreading agent as mentioned above to prepare a 0.78 ppm water dilution of etoxazole and a 3.13 ppm water dilution of spinetoram.
Leaves were taken from a cultivated Satsuma mandarin orange tree, and cut into 2-cm-square pieces. One of the pieces was immersed in the test solution for 60 seconds. […]
An insecticidal rate was calculated in the same manner as Test Example 1. […]

## CCOc1cc(C(C)(C)C)ccc1C1COC(c2c(F)cccc2F)=N1 (stereo not shown) [Etoxazole, 2-(2,6-difluorophenyl)-4-[4-(1,1-dimethylethyl)-2-ethoxyphenyl]-4,5-dihydrooxazole]
Spodoptera litura; 12.5 ppm active ingredient
  Insecticidal rate: 26.7%
Panonychus citri; 0.78 ppm active ingredient
  Insecticidal rate: 7.7%

## spinetoram
Spodoptera litura; 3.66 ppm active ingredient
  Insecticidal rate: 43.3%
Panonychus citri; 3.13 ppm active ingredient
  Insecticidal rate: 23.1%
